# Experimental data as given in patent US20220062296A1, “COMBINATIONS OF GABAA ALPHA 5 AGONISTS AND SV2A INHIBITORS AND METHODS OF USING IN THE TREATMENT OF COGNITIVE IMPAIRMENT” (AGENEBIO, INC., priority 2020, published 2022).
# “Also recorded” adds a separate entry of the source.
# Legend:
# MAM-treated rats = conditions: cited from earlier work
# [1] = Differential scanning calorimetry / thermogravimetry (DSC, TGA); format: physicochemical; conditions: 10° C./min
# Protocol: DSC was performed using a Mettler-Toledo DSC3+ differential scanning calorimeter. A tau lag adjustment is performed with indium, tin, and zinc. The temperature and enthalpy are adjusted with octane, phenyl salicylate, indium, tin and zinc. The adjustment is then verified with octane, phenyl salicylate, indium, tin, and zinc. The sample was placed into a hermetically sealed aluminum DSC pan, the weight was accurately recorded, and the sample was inserted into the DSC cell. A weighed aluminum pan configured as the sample pan was placed on the reference side of the cell. The pan lid was pierced prior to sample analysis. The samples were analyzed from −25° C. to 250° C. at 10° C./min.
# Thermogravimetric analyses were performed using a Mettler-Toledo TGA/DSC3+ analyzer. Temperature calibration was performed using calcium oxalate, indium, tin, and zinc. The sample was placed in an aluminum pan. The pan was hermetically sealed, the lid was pierced, and the pan was then inserted into the TG furnace. A weighed aluminum pan configured as the sample pan was placed on the reference platform. The furnace was heated under nitrogen. Samples were analyzed from 25° C. to 350° C. at 10° C./min.
# [2] = Competitive interconversion slurry experiments between crystalline forms (relative thermodynamic stability); format: physicochemical; conditions: ambient temperature; Form E also 55° C. and 77° C.
# Protocol: Interconversion experiments were performed to identify the most thermodynamically stable anhydrous form of Compound 1 (Table 19). […] The choice of solvent affects the kinetics of polymorph conversion and not the thermodynamic relationship between polymorphic forms.
# Various combinations of Forms B, E, F, and Material D were slurried with Form A at ambient and elevated temperatures (for experiments involving Form E). Different solvent systems were used and included a variety of water activities. Saturated solutions were generated and then added to the mixtures composed of approximately equivalent quantities of the forms. The mixtures were slurried for a particular duration of time and the solids harvested and analyzed by XRPD.
# [3] = test system: memory-impaired aged (AI) rats; test: Radial arm maze task with 2-hr retention interval, acute brivaracetam or seletracetam; format: in vivo, rat; conditions: doses 0.0625-4 mg/kg i.p.; repeated measures ANOVA
# Protocol: (§1) The radial arm maze experiments used acute administration of seletracetam (0-4 mg/kg), brivaracetam (0-4 mg/kg), or saline vehicle given by intraperitoneal injection (in a volume of 1 ml/kg) 30-40 min prior to test sessions.
# A radial arm maze (RAM) task was used to assess effects of acute drug treatment with seletracetam and brivaracetam. This protocol allowed within-subject assessment across drugs at different doses. The radial maze consisted of eight arms projecting from each side of an octagonal center platform, with a food well located at the distal end of each arm. Plexiglas blocks could be positioned to prevent entry into any arm. Extra-maze cues were provided in the room surrounding the maze and illumination was provided by an overhead light.
# Pre-training, as described in detail in Chappell et al. Neuropharmacology 37: 481-487, (1998), consisted of habituation, standard win-shift training, and win-shift training with delays interposed between information and memory test phases. Drug treatments began two days after the completion of pre-training. Three arms were blocked at the beginning of each trial (information phase). The identity and configuration of the blocked arms were varied across trials. Food-deprived rats were allowed to retrieve food reward (Kellogg's Froot Loops™ cereal) from the five unblocked arms. […]
# aged-impaired rats = test: Water maze probe test after chronic brivaracetam (osmotic mini-pumps); format: in vivo, rat; conditions: 2 mg/kg/day
# Protocol: as §1
# Rats were trained and tested in a novel water maze environment to assess the effect of drug treatment. The water maze used here was housed in a different building and was surrounded by curtains with a novel set of patterns relative to the maze used for initial assessment of cognitive status. The training protocol consisted of 6 trials per day for 2 days to locate a submerged escape platform. On each trial, a rat was released in the maze from one of four equally spaced starting positions around the perimeter of the pool. The starting position varied from trial to trial. […] The rat was then removed from the platform and placed in a holding cage for another 40 s before the next trial. Approximately 24 hr after the last training trial, a probe test in the absence of the escape platform was given to assess spatial memory.
# [4] = Storage and stress stability of crystalline forms (XRPD); format: physicochemical; conditions: for stability under ambient storage: ambient conditions
# Protocol: XRPD patterns were collected with a PANalytical X'Pert PRO MPD or a PANalytical Empyrean diffractometer using an incident beam of Cu radiation produced using an Optix long, fine-focus source. An elliptically graded multilayer mirror was used to focus Cu Kα X-rays through the specimen and onto the detector. Prior to the analysis, a silicon specimen (NIST SRM 640e) was analyzed to verify the observed position of the Si 111 peak is consistent with the NIST-certified position. A specimen of the sample was sandwiched between 3-μm-thick films and analyzed in transmission geometry. A beam-stop, short antiscatter extension, and antiscatter knife edge were used to minimize the background generated by air. Sober slits for the incident and diffracted beams were used to minimize broadening from axial divergence. Diffraction patterns were collected using a scanning position-sensitive detector (X'Celerator) located 240 mm from the specimen and Data Collector software v. 5.5.
# [5] = Dynamic vapor sorption (DVS); format: physicochemical; conditions: for form recovered after the DVS experiment (XRPD): post DVS
# Protocol: Dynamic vapor sorption data was collected on a Surface Measurement System DVS Intrinsic instrument. The samples were not dried prior to analysis. Sorption and desorption data were collected over a range from 5% to 95% RH in 10% RH increments under a nitrogen purge. The equilibrium criteria used for the analyses were 0.001 dm/dt weight change in 5 minutes with a minimum step time of 30 minutes and maximum equilibration time of 180 minutes with a 3-minute data logging interval. Data were not corrected for the initial moisture content of the sample. The samples were identified as having low, limited or significant hygroscopicity based on the definitions in the below table.
structure (smiles),measurement,setting,value
C#Cc1ccc2c(c1)C(c1ccccc1F)=N[C@H](C)c1c(C(=O)OCC)ncn1-2 [SH-053-2′F—R—CH3],number of spontaneously active DA neurons in the ventral tegmental area (VTA),"MAM-treated rats; MAM rats, systemic or infused into the ventral HPC",reduces the number of spontaneously active DA neurons
same,increased locomotor response to amphetamine,MAM-treated rats; MAM-treated rats,is reduced
same,cortical-evoked responses of HPC neurons,MAM-treated rats; saline-treated and MAM-treated animals,diminished cortical-evoked responses
COCc1nnc2n1Cc1c(C#Cc3cnc(OC)s3)ncn1-c1ccc(Cl)cc1-2 [Form B],onset of DSC exotherm due to decomposition,[1],about 190 °C
same,outcome of solvent-mediated interconversion with Form A (relative thermodynamic stability),[2],convert to Form A
"CC[C@@H](C(N)=O)N1C[C@H](C=C(F)F)CC1=O [seletracetam, (2S)-2-[(4S)-4-(2,2-difluoroethenyl)-2-oxopyrrolidin-1-yl]butanamide]",number of errors in the retention phase after the 2-hr delay,[3],significant effect as a function of dose
"CCC[C@@H]1CC(=O)N([C@@H](CC)C(N)=O)C1 [brivaracetam, (2S)-2-[(4R)-2-oxo-4-propylpyrrolidin-1-yl]butanamide]",number of errors in the retention phase after the 2-hr delay,[3],significant effect as a function of dose
same,spatial bias for the target quadrant compared to the other control quadrants,"aged-impaired rats; osmotic mini-pumps, started two weeks before, p=0.010",significant spatial bias for the target quadrant
same,time in the target quadrant vs vehicle-treated rats,aged-impaired rats; p=0.018,significantly more time in the target quadrant
same,time in the target annulus vs vehicle-treated rats,aged-impaired rats; p=0.036,significantly more time in the target annulus
COCc1nnc2n1Cc1c(C#Cc3cnc(OC)s3)ncn1-c1ccc(Cl)cc1-2 [Form F],behaviour upon exposure to 100° C.,[4]; 100° C.,does dehydrate
same,stability under vacuum at ambient temperature,"[4]; vacuum, ambient temperature",remain unchanged for 5 days
same,onset of DSC exotherm due to decomposition,[1],above 120 °C
same,hygroscopicity (DVS isotherm),[5]; 5% to 95% RH,limited hygroscopicity
same,weight gain on sorption,[5]; from 5-95% RH,1.8%
same,form recovered after the DVS experiment (XRPD),[5],still Form F
same,weight loss upon desorption,[5]; significant hysteresis,1.5%
COCc1nnc2n1Cc1c(C#Cc3cnc(OC)s3)ncn1-c1ccc(Cl)cc1-2 [Material D],stability under ambient storage,[4],Material D still remained
same,onset of DSC exotherm due to decomposition,[1],~174 °C
same,outcome of solvent-mediated interconversion with Form A (relative thermodynamic stability),[2],convert to Form A
COCc1nnc2n1Cc1c(C#Cc3cnc(OC)s3)ncn1-c1ccc(Cl)cc1-2 [Form E],onset of DSC exotherm due to decomposition,[1],~201 °C
same,outcome of solvent-mediated interconversion with Form A (relative thermodynamic stability),[2],metastable relative to Form A
COCc1nnc2n1Cc1c(C#Cc3cnc(OC)s3)ncn1-c1ccc(Cl)cc1-2 [Form C],behaviour upon overnight exposure to 80° C.,"[4]; 80° C., overnight",desolvate to Form B
same,stability under ambient storage,[4],remain unchanged for 9 weeks
same,onset of DSC exotherm due to decomposition,[1],190 °C
COCc1nnc2n1Cc1c(C#Cc3cnc(OC)s3)ncn1-c1ccc(Cl)cc1-2 [Form A],onset of DSC exotherm due to decomposition,[1],about 207 °C
same,outcome of solvent-mediated interconversion with Form A (relative thermodynamic stability),[2],Form A prevailed for each experiment
same,hygroscopicity (DVS isotherm),[5]; 5% to 95% RH,low hygroscopicity; also recorded: limited hygroscopicity
same,weight change through the sorption/desorption cycle,"[5]; 5% to 95% RH, no hysteresis",~0.3%
same,form recovered after the DVS experiment (XRPD),[5],same as the starting material
